EC50 data for five molecules are collected here from patent US20220024906A1, “COMPOUNDS AND COMPOSITIONS FOR TREATING CONDITIONS ASSOCIATED WITH STING ACTIVITY” (IFM Due, Inc., priority 2020, published 2022).

Usually pEC50 stands for the negative decadic logarithm of the EC50, by convention in mol/L. A low value points to a high EC50.

pEC50: −log10 of the molar value.

This experiment addresses T1, hSTING (Homo sapiens, UniProt Q86WV6, G230A/H232R/R293Q/R71H).
T1 construct: host or cells: THP1-Dual KO-IFNAR2 cells
Nature of the experiment: STING reporter assay (luciferase) in THP1-Dual KO-IFNAR2 cells stimulated with 2′3′cGAMP. It counts as cell-based. The conditions noted are these: 15 μM 2′3′cGAMP transfected, 24 h, luciferase reporter activity. As for the experimental part: STING pathway activation by the compounds described herein was measured using THP1-Dual™ cells (KO-IFNAR2).
THP1-Dual™ KO-IFNAR2 Cells (obtained from invivogen) were maintained in RPMI, 10% FCS, 5 ml P/S, 2 mM L-glut, 10 mM Hepes, and 1 mM sodium pyruvate. Compounds were spotted in empty 384 well tissue culture plates (Greiner 781182) by Echo for a final concentration of 0.0017-100 μM. Cells were plated into the TC plates at 40 μL per well, 2×10E6 cells/mL. For activation with STING ligand, 2′3′cGAMP (MW 718.38, obtained from Invivogen), was prepared in Optimem media.
The following solutions were prepared for each 1×384 plate: • Solution A: 2 mL Optimem with one of the following stimuli: • 60 μL of 10 mM 2′3′cGAMP→150 μM stock • Solution B: 2 mL Optimem with 60 μL Lipofectamine 2000→Incubate 5 min at RT
2 mL of solution A and 2 ml Solution B was mixed and incubated for 20 min at room temperature (RT). 20 μL of transfection solution (A+B) was added on top of the plated cells, with a final 2′3′cGAMP concentration of 15 μM. The plates were then centrifuged immediately at 340 g for 1 minute, after which they were incubated at 37° C., 5% CO2, >98% humidity for 24 h. Luciferase reporter activity was then measured. EC50 values were calculated by using standard methods known in the art.
Luciferase reporter assay: 10 μL of supernatant from the assay was transferred to white 384-plate with flat bottom and squared wells. One pouch of QUANTI-Luc™ Plus was dissolved in 25 mL of water. 100 μL of QLC Stabilizer per 25 mL of QUANTI-Luc™ Plus solution was added. 50 μL of QUANTI-Luc™ Plus/QLC solution per well was then added. Luminescence was measured on a Platereader (e.g., Spectramax I3X (Molecular Devices GF3637001)).
Luciferase reporter activity was then measured. EC50 values were calculated by using standard methods known in the art.

T1 sequence (Q86WV6 whole entry R71H/G230A/H232R/R293Q): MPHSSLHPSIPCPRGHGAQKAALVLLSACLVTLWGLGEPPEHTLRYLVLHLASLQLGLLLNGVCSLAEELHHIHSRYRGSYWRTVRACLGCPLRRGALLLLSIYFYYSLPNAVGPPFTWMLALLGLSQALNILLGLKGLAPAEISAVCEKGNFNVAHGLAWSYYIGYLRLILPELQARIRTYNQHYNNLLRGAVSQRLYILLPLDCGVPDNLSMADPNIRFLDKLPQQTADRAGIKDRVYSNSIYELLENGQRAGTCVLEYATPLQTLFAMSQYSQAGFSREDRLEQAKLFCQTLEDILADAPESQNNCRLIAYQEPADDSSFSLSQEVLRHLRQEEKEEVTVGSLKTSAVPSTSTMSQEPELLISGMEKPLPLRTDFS

In turn, `Cn1cnnc1CCC(=O)Nc1c[nH]c2ccc(-c3cnn(-c4ccc(C(F)(F)F)cc4)c3)cc12` [Compound 153, 3-(4-methyl-4H-1,2,4-triazol-3-yl)-N-(5-(1-(4-(trifluoromethyl)phenyl)-1H-pyrazol-4-yl)-1H-indol-3-yl)propanamide] gave a pEC50 of 5.30 to 6.00.
In turn, `O=C(/C=C/c1ccc(OC(F)(F)F)cc1)Nc1c[nH]c2cc(F)c(F)cc12` [Compound 136, (E)-N-(5,6-difluoro-1H-indol-3-yl)-3-(4-(trifluoromethoxy)phenyl)acrylamide] gave a pEC50 of 6.00 to 6.70.
With `O=C(Cc1nnn[nH]1)Nc1c[nH]c2ccc(-c3cnn(-c4ccc(C(F)(F)F)cc4)c3)cc12` [Compound 141, 2-(1H-tetrazol-5-yl)-N-(5-(1-(4-(trifluoromethyl)phenyl)-1H-pyrazol-4-yl)-1H-indol-3-yl)acetamide], the pEC50 is 4.00 to 5.30.
In turn, `COc1ccc(CC(C)(C)C(=O)Nc2c[nH]c3cc(F)c(F)cc23)cc1` [Compound 133, N-(5,6-difluoro-1H-indol-3-yl)-3-(4-methoxyphenyl)-2,2-dimethylpropanamide] showed a negative-log EC50 (pEC50) of 4.00 to 5.30.
For `Cc1nnc(CC(=O)Nc2c[nH]c3ccc(-c4cnn(-c5ccc(C(F)(F)F)cc5)c4)cc23)o1` [Compound 138, 2-(5-methyl-1,3,4-oxadiazol-2-yl)-N-(5-(1-(4-(trifluoromethyl)phenyl)-1H-pyrazol-4-yl)-1H-indol-3-yl)acetamide], the pEC50 is 6.00 to 6.70.
